Columns and labels:
[1] = tested on: CPG-tel26 (DNA, G4) TTAGGGTTAGGGTTAGGGTTAGGGTT; assay: G4-CPG affinity chromatography; conditions: 50 mM KCl; 10% DMSO, 10% ethanol; 60 μM compound; error ±2%
[2] = tested on: CPG-ds27 (DNA, hairpin) CGCGAATTCGCGTTTCGCGAATTCGCG; assay: G4-CPG affinity chromatography; conditions: 50 mM KCl; 10% DMSO, 10% ethanol; 60 μM compound; error ±2%
[3] = tested on: CPG-c-myc (DNA, G4) TGGGGAGGGTGGGGAGGGTGGGGAAGGTGGGGA; assay: G4-CPG affinity chromatography; conditions: 50 mM KCl; 10% DMSO, 10% ethanol; 60 μM compound; error ±2%
[4] = tested on: ds12 (DNA, duplex) CGCGAATTCGCG; assay: fluorescence titration (ligand quenching); conditions: 20 mM KCl, 5 mM potassium phosphate; pH 7, 20 °C; 2 μM ligand; independent equivalent-sites fit; average over multiple binding events
[5] = tested on: Pu22 (DNA, G4) TGAGGGTGGGTAGGGTGGGTAA; assay: fluorescence titration (ligand quenching); conditions: 20 mM KCl, 5 mM potassium phosphate; pH 7, 20 °C; 2 μM ligand; independent equivalent-sites fit; average over multiple binding events
[6] = tested on: tel26 (DNA, G4) TTAGGGTTAGGGTTAGGGTTAGGGTT; assay: fluorescence titration (ligand quenching); conditions: 20 mM KCl, 5 mM potassium phosphate; pH 7, 20 °C; 2 μM ligand; independent equivalent-sites fit; average over multiple binding events
[7] = tested on: Pu22 (DNA, G4) TGAGGGTGGGTAGGGTGGGTAA; assay: CD melting (265 nm); conditions: no added metal cations; 10 mM Tris-HCl, pH 7; 2 μM DNA, 20 μM ligand (10 equiv)

Row | SMILES | Bound Ligand (%) [1] | Bound Ligand (%) [2] | Bound Ligand (%) [3] | Kb [4] | Kb [5] | Kb [6] | ΔTm [7]
1 | C=CC12C(=O)C(C)(O)C(CC1c1cc(C)cc3c1-c1ccc(O)c(C)c1CC3)C1=C2c2ccc(OC)c(C)c2CC1 (stereo not shown) | 0% | 0% | 0% |  |  |  | 
2 | C=CC12C(=O)C(C)(O)C3CC1c1c4c(cc(C)c1C31CCc3c(ccc(O)c3C)C21O)CCc1c-4ccc(O)c1C (stereo not shown) | 48% | 38% | 56% |  |  |  | 
3 | C=CC12C3=C(CCc4c3ccc(O)c4C)C(CC1c1cc(C)cc3c1-c1ccc(O)c(C)c1CC3)C(C)(O)C2O (stereo not shown) | 19% | 0% | 18% | (6.0 ± 1.7) × 10^5 M^-1 | (4.4 ± 0.7) × 10^5 M^-1 | (2.3 ± 0.9) × 10^6 M^-1 | 
4 | C=Cc1c(C)c(O)cc2c1-c1ccc(O)c(C)c1CC2 | 2% | 0% | 4% |  |  |  | 
5 | C=Cc1c(C)c(O[C@@H]2O[C@H](CO)[C@@H](O)[C@H](O)[C@H]2O)cc2c1-c1ccc(O)c(C)c1CC2 | 0% | 0% | 3% |  |  |  | 
6 | C=Cc1c(C)c(O[C@H]2O[C@H](CO)[C@@H](O)[C@H](O)[C@H]2O)cc2c1-c1ccc(O)c(C)c1CC2 | 0% | 0% | 0% |  |  |  | 
7 | Cc1c(O)cc2c3c1CCc1cc(O[C@H]4O[C@H](CO)[C@@H](O)[C@H](O)[C@H]4O)c(C)c(c1-3)CC2 | 9% | 2% | 8% |  |  |  | +4 °C
